Measured values reported in article PMC10165273, “Itch receptor MRGPRX4 interacts with the receptor activity–modifying proteins” (The Journal of Biological Chemistry, 2023).
Several values for one entry are separate records, joined by “and”; a condition that tells them apart may be missing. Equal values may be shown once. Read-outs that look alike come from different tables or passages of the source.

Tests used:
mock-transfected cells = experiment: BRET2 β-arrestin recruitment time course, mock-transfected cells; type: cell-based, human; details: Fig 5c, 100μM ligand, listed as Ng
MRGPRX4 = molecular target: T1, MRGPRX4 (Homo sapiens, UniProt Q96LA9); experiment: BRET2 β-arrestin2 recruitment to MRGPRX4; type: cell-based; details: for net BRET2 ratio, βArr2 recruitment: Fig 5b, 100µM ligand, replicate values; for net BRET2 ratio, βArr2 recruitment / BRET2 ratio: listed as Ng; for BRET2 ratio: Fig 5c, MRGPRX4, 100μM ligand
T1 construct: expressed in transfected cells; host or cells: HEK293T
T1 sequence (Q96LA9 whole entry): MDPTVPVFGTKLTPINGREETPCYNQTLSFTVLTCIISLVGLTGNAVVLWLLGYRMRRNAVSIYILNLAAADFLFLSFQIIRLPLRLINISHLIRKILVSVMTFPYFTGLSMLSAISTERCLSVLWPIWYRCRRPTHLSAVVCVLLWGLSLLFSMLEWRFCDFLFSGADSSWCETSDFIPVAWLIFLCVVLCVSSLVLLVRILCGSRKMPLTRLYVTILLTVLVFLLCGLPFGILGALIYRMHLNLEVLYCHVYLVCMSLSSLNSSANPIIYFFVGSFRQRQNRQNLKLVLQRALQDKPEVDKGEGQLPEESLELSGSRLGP
From the text: The method for homogenous transfection of β-Arrestin and BRET^2 assay of β-Arrestin recruitment has been described previously ([51]). […] BRET^2 measurements were taken on the BioTek Synergy NEO2 microplate reader.
For MRGPRX4 DNA titration assays, HEK293T cells were cotransfected with either β-Arrestin1 or β-Arrestin2 with increasing amounts of MRGPRX4 (0.5, 1, or 2 pg/cell).
To measure the time-course of β-Arrestin2 recruitment to MRGPRX4 and CALCRL, the transfection and general procedure described above was followed, with the modification that Prolume Purple was added first, followed by addition of the appropriate agonists ([51]).
The BRET ratio for each sample was determined by calculating the ratio of the light intensity emitted by the GFP10 (515 nm) (acceptor) over the light intensity emitted by the RLuc3 (395 nm) (donor). Net BRET^2 was determined by subtracting the basal BRET^2 (β-arrestin-RLuc3 only) signal from the BRET^2 signals. All BRET values were normalized to the MRGPRX4-only condition.

MRGPRX4 + RAMP1 = molecular target: T2, MRGPRX4 + RAMP1 (Homo sapiens, UniProt Q96LA9); experiment: IP1 accumulation, MRGPRX4 coexpressed with RAMP1; type: cell-based; details: 2 h, Supplementary Figure 5d, read-out: IP1 accumulation (normalized); for activation at 20 µM: log [nateglinide] (M) -4.69897; for activation at 4 µM: log [nateglinide] (M) -5.39794; for activation at 0.8 µM: log [nateglinide] (M) -6.09691; for activation at […]: log [nateglinide] (M) -6.79588; for activation at 0.032 µM: log [nateglinide] (M) -7.49485
T2 construct: expressed in transfected cells; host or cells: HEK293T
T2 sequence (Q96LA9 whole entry): as above
Procedure: HEK293T cells were transfected with 1 pg/cell of MRGPRX4 DNA, and the amount of DNA was kept constant at 2 pg/cell with pcDNA3.1(+) empty vector, unless otherwise specified. Twenty four hours after transfection, IP1 assay was performed as previously described ([51]). When applicable, cells were treated with 1 μM YM254890 (YM) or different concentrations of U73122 for 1 h prior to addition of agonist or buffer. After incubation for 2 h, HTRF reagents and IP1 calibration standards were added and incubated for 2 h in the dark at room temperature. Time-resolved fluorescence signals were read on the BioTek Synergy NEO-TRF Hybrid multi-mode reader (BioTek Instruments). All data were carried out in three independent experiments with three technical replicate each.
For a homogenous transfection of MRGPRX4, a master mix of MRGPRX4 DNA was made prior to addition of the RAMP DNA. […]
Data reduction, standard calibration, and transformation of HTRF data were performed as previously described ([51]). Normalized IP1 values were calculated relative to the unstimulated mock-transfected cells (set to 0%) and fully stimulated MRGPRX4 (alone if applicable) (set to 100%).

[1] = MRGPRX4-GFP10 BRET2 time-course, 100 µM (Fig. 5)

CC(C)[C@H]1CC[C@H](C(=O)N[C@H](Cc2ccccc2)C(=O)O)CC1 [Nateglinide]
BRET2 ratio (mock-transfected cells; 60 s): 0.008415 and 0.007646 and 0.00794
BRET2 ratio (mock-transfected cells; 120 s): 0.007842 and 0.007685 and 0.007289
BRET2 ratio (mock-transfected cells; 180 s): 0.007259 and 0.007981 and 0.007565
BRET2 ratio (mock-transfected cells; 240 s): 0.007155 and 0.006788 and 0.008148
BRET2 ratio (mock-transfected cells; 300 s): 0.007567 and 0.007447 and 0.007514
BRET2 ratio (mock-transfected cells; 360 s): 0.008471 and 0.007058 and 0.007429
BRET2 ratio (mock-transfected cells; 420 s): 0.007097 and 0.007188 and 0.007508
BRET2 ratio (mock-transfected cells; 480 s): 0.006826 and 0.007196 and 0.007205
BRET2 ratio (mock-transfected cells; 540 s): 0.008083 and 0.00749 and 0.00867
BRET2 ratio (mock-transfected cells; 600 s): 0.007686 and 0.006192 and 0.007271
BRET2 ratio (mock-transfected cells; 660 s): 0.006698 and 0.007765 and 0.007192
BRET2 ratio (mock-transfected cells; 720 s): 0.00801 and 0.006623 and 0.005548
BRET2 ratio (mock-transfected cells; 780 s): 0.009777 and 0.007416 and 0.006284
BRET2 ratio (mock-transfected cells; 840 s): 0.007062 and 0.008946 and 0.00672
BRET2 ratio (mock-transfected cells; 900 s): 0.007894 and 0.008249 and 0.007741
BRET2 ratio (mock-transfected cells; 960 s): 0.008424 and 0.006304 and 0.008892
BRET2 ratio (mock-transfected cells; 1020 s): 0.008684 and 0.007837 and 0.007668
BRET2 ratio (mock-transfected cells; 1080 s): 0.008011 and 0.008281 and 0.007344
BRET2 ratio (mock-transfected cells; 1140 s): 0.009425 and 0.00762 and 0.007536
BRET2 ratio (mock-transfected cells; 1200 s): 0.006477 and 0.008078 and 0.009426
BRET2 ratio (mock-transfected cells; 1260 s): 0.008155 and 0.006248 and 0.008937
BRET2 ratio (mock-transfected cells; 1320 s): 0.008765 and 0.01027 and 0.007016
BRET2 ratio (mock-transfected cells; 1380 s): 0.009766 and 0.009472 and 0.01001
β-arrestin2 recruitment to MRGPRX4 (MRGPRX4; 100 μM agonist (Fig. 5B, C)): recruited β-arrestin2 more strongly than β-arrestin1
net BRET2 ratio, βArr2 recruitment (MRGPRX4; MRGPRX4 20ng, 0.5 pg DNA/cell): 0.01059 and 0.011 and 0.01083 and 0.009137 and 0.01004 and 0.009779 and 0.007885 and 0.007959 and 0.007875 and 0.009405 and 0.008616 and 0.00928 and 0.007811 and 0.00797 and 0.009994 and 0.008653 and 0.00706 and 0.007614 and 0.007209 and 0.007504 and 0.007132 and 0.006566 and 0.006348 and 0.007157 and 0.004522 and 0.007759 and 0.005207
net BRET2 ratio, βArr2 recruitment (MRGPRX4; MRGPRX4 40ng, 1 pg DNA/cell): 0.01411 and 0.01341 and 0.01314 and 0.01164 and 0.01153 and 0.01104 and 0.009585 and 0.009093 and 0.008671 and 0.0118 and 0.009621 and 0.01107 and 0.01117 and 0.01052 and 0.009545 and 0.01099 and 0.00914 and 0.009334 and 0.008409 and 0.01062 and 0.01019 and 0.008186 and 0.008003 and 0.007557 and 0.007525 and 0.005338 and 0.009291
net BRET2 ratio, βArr2 recruitment (MRGPRX4; MRGPRX4 80ng, 2 pg DNA/cell): 0.01501 and 0.01563 and 0.01506 and 0.0134 and 0.0136 and 0.01318 and 0.01149 and 0.0115 and 0.01095 (2×) and 0.01387 and 0.01159 and 0.01257 and 0.01157 and 0.01276 and 0.01058 and 0.009957 and 0.009364 and 0.01169
net BRET2 ratio, βArr2 recruitment (MRGPRX4; βArr2 only, 0 pg MRGPRX4 DNA/cell): 0.0002584 and -0.0001954 and -6.2982e-5 and -0.0001775 and 0.0006514 and -0.0004739 and -9.3811e-5 and 0.0004305 and -0.0003367 and -6.4621e-5 and -0.0005147 and 0.0005793 and -0.0001286 and 0.0001629 and -3.4338e-5 and 0.0006863 and -0.0005797 and -0.0001066 and -6.7124e-5 and 1.05e-5 and 5.6622e-5 and 0.0001307 and -0.0006572 and 0.0005265 and 0.0006391 and 0.0003062 and -0.0009453
BRET2 ratio (MRGPRX4; 60 s): 0.01411 and 0.01234 and 0.0129
BRET2 ratio (MRGPRX4; 120 s): 0.01624 and 0.01368 and 0.01342
BRET2 ratio (MRGPRX4; 180 s): 0.01716 and 0.01419 and 0.01539
BRET2 ratio (MRGPRX4; 240 s): 0.01732 and 0.01509 and 0.01494
BRET2 ratio (MRGPRX4; 300 s): 0.01643 and 0.01468 and 0.01593
BRET2 ratio (MRGPRX4; 360 s): 0.01701 and 0.01469 and 0.01434
BRET2 ratio (MRGPRX4; 420 s): 0.01667 and 0.01531 and 0.01417
BRET2 ratio (MRGPRX4; 480 s): 0.01658 and 0.0139 and 0.01409
BRET2 ratio (MRGPRX4; 540 s): 0.01614 and 0.01397 and 0.01412
BRET2 ratio (MRGPRX4; 600 s): 0.01601 and 0.01404 and 0.013
BRET2 ratio (MRGPRX4; 660 s): 0.0171 and 0.01418 and 0.0126
BRET2 ratio (MRGPRX4; 720 s): 0.01525 and 0.01442 and 0.01263
BRET2 ratio (MRGPRX4; 780 s): 0.01511 and 0.01318 and 0.01349
BRET2 ratio (MRGPRX4; 840 s): 0.01493 and 0.01394 and 0.01155
BRET2 ratio (MRGPRX4; 900 s): 0.01482 and 0.01445 and 0.01282
BRET2 ratio (MRGPRX4; 960 s): 0.01446 and 0.01322 and 0.01117
BRET2 ratio (MRGPRX4; 1020 s): 0.01461 and 0.01265 and 0.01275
BRET2 ratio (MRGPRX4; 1080 s): 0.01404 and 0.01402 and 0.01514
BRET2 ratio (MRGPRX4; 1140 s): 0.01394 and 0.01316 and 0.01206
BRET2 ratio (MRGPRX4; 1200 s): 0.01452 and 0.0141 and 0.01263
BRET2 ratio (MRGPRX4; 1260 s): 0.01409 and 0.01389 and 0.01057
BRET2 ratio (MRGPRX4; 1320 s): 0.01336 and 0.01334 and 0.0149
BRET2 ratio (MRGPRX4; 1380 s): 0.01171 and 0.01208 and 0.01329
normalized β-arrestin2 recruitment BRET2 signal (Figure 5f) (MRGPRX4; MRGPRX4, 100μM Ng): 1
Kfast (MRGPRX4; [1]): 0.008519
Kslow (MRGPRX4; [1]): 0.002534
Rate constant ratio (MRGPRX4; [1]): 3.361
Tau (fast) (MRGPRX4; [1]): 117.4
Tau (slow) (MRGPRX4; [1]): 394.6
two-phase decay Plateau (MRGPRX4; [1]): 0.004639
two-phase decay x0 (MRGPRX4; [1]): 56.70
two-phase decay y0 (MRGPRX4; [1]): 0.01291
time of peak β-arrestin2 recruitment to MRGPRX4 (MRGPRX4; time course (Fig. 5C)): 3 min
activation at 100 µM (MRGPRX4 + RAMP1; log [nateglinide] (M) -4, MRGPRX4+RAMP10.5pg 1:0.5): 99.2%
activation at 20 µM (MRGPRX4 + RAMP1; MRGPRX4+RAMP10.5pg 1:0.5): 78.1%
activation at 20 µM (MRGPRX4 + RAMP1; MRGPRX4+RAMP1 0.75pg 1:0.75): 84.8%
activation at 20 µM (MRGPRX4 + RAMP1; MRGPRX4+RAMP1 1pg 1:1, 5g): 72.1%
activation at 4 µM (MRGPRX4 + RAMP1; MRGPRX4+RAMP10.5pg 1:0.5): 49.7%
activation at 4 µM (MRGPRX4 + RAMP1; MRGPRX4+RAMP1 0.75pg 1:0.75): 44.1%
activation at 4 µM (MRGPRX4 + RAMP1; MRGPRX4+RAMP1 1pg 1:1, 5g): 39.2%
activation at 0.8 µM (MRGPRX4 + RAMP1; MRGPRX4+RAMP10.5pg 1:0.5): 18.6%
activation at 0.8 µM (MRGPRX4 + RAMP1; MRGPRX4+RAMP1 0.75pg 1:0.75): 14.6%
activation at 0.8 µM (MRGPRX4 + RAMP1; MRGPRX4+RAMP1 1pg 1:1, 5g): 12.9%
activation at […] (MRGPRX4 + RAMP1; MRGPRX4+RAMP10.5pg 1:0.5): 8.57%
activation at […] (MRGPRX4 + RAMP1; MRGPRX4+RAMP1 0.75pg 1:0.75): 11.2%
activation at 0.032 µM (MRGPRX4 + RAMP1; MRGPRX4+RAMP10.5pg 1:0.5): 7.92%
activation at 0.032 µM (MRGPRX4 + RAMP1; MRGPRX4+RAMP1 0.75pg 1:0.75): 8.7%
activation at 0.032 µM (MRGPRX4 + RAMP1; MRGPRX4+RAMP1 1pg 1:1, 5g): 7.65%
